Laboratory results from patent publication US20090321255A1, “Drug-meter: Multiwell membrane-based potentiometric sensor for high throughput tests of drugs” (priority 2008, published 2009).
Where a name gives a salt, the structure may show the parent alone.

How the values were obtained:
albumin = albumin (Homo sapiens, UniProt P02768); experiment: Transmembrane potential calibration of the multiwell sensor in albumin solution; format: physicochemical
Method: In some cases drugs concentration was measured in albumin solutions with protein concentration 0.022 g/cm^3 in buffer or Fetal Bovine Serum was used with concentration of serum albumin in the range 0.0187 g/cm^3-0.022 g/cm^3.
The base plate was filled with the buffer of reference concentration 5×10^−6 M of drug, and the wells with albumin-drug solution, with constant concentration of albumin, but varying concentration of drug.
In this case the measuring Ag/AgCl electrode was inserted into the wells with albumin solution with decreasing fenfluramine concentrations, then increasing fenfluramine concentrations, i.e. forward and backward using the same wells. The base solution was buffer. The method allows measurements of fenfluramine from 5×10^−5 to 5×10^−2M.
If different concentrations of rimantadine in albumin solution were preliminary prepared, preequilibrated and then added into the wells (method 2), a gradient was 59.9 mV per 10 fold change in drug concentration, which is similar to that with a buffer solution.
Chlorpromazine test solutions were injected into the wells and the reference solution of 5×10^−6 M Chlorpromazine in the buffer was added into the base. […] This effect is similar to the lysis of biological membranes and is related to the surface active properties of chlorpromazine. It was observed also with several other psychotropic substances, including several antidepressants. Those of the drugs which induce lysis at elevated concentrations also have nonspecific liver toxicity.

[1] = Biomimetic membrane lysis (screen for nonspecific liver toxicity); details: elevated drug concentration (chlorpromazine near 0.05 M, after some time)
[2] = Transmembrane potential calibration of multiwell biomimetic membrane sensor in buffer; format: physicochemical; details: pH 8
From the text: Multiwell plates used were commercial Millipore MultiScreen VM 0.05μ plates with nitrocellulose ultrafilters located at the base of each of the 96 wells of a plate. Though the number of the wells in the examples given in the disclosure is 96, as it is in the usual multiwell plates, it is not limited by this number and can be any from 2 and above.
All filters were impregnated by isopropyl myristate or some other lipid-like substances, like long chain fatty acids, their methyl and ethyl-esters, fats, etc. After impregnation the membranes should be translucent.
Each well requires as little as 200 μl of test solution. The small well's volume and the numerous wells (96) make the plates highly suitable as a part of the drug sensor, both for pharmaceutical testing in a buffer as well as for testing in biological fluids.
The tray cover can be is used as a base tray to put the reference buffer solution. Two Ag/AgCl electrodes with the salt bridges were used to measure transmembrane potential with common multimeter. It is possible to use one Ag/AgCl element as a measuring electrode and move it from one well to another. Another option is to have different measuring electrodes in different wells and separately to collect signals from each of them separately.
Kinetics of the process was registered with electrochemical station GPES. […]

[3] = Kinetics of transmembrane potential decrease due to drug transport through the membrane; format: physicochemical
Method: Kinetics of the process was registered with electrochemical station GPES. 5 mM Potassium Dihydrogen Phosphate solution in water was used as a buffer, filling the tray with the volume ˜30 ml. Known concentration of a drug (usually near 10^−5 M) could be added in the buffer as the reference. Membrane resistance after impregnation was several megaohms and usually decreases after modification of the membrane with drugs. Resistance is much lower when the membrane is broken. In this case the measurements can be conducted in other wells with the same test solution.
Using electrochemical station and computer it is possible to measure potential continuously in time, and for example, to study drug transport through the membrane. In this case it is possible to have different drugs or different types of membranes in different wells.
The steady state potential can decrease in time if one waits at least several minutes due to the slow drug transport through the membrane. After the experiments the membrane could be washed, dried, reimpregnated and after preequilibration used again.
At higher concentrations of the drug after the transmembrane potential reaches its maximum value, it slowly decreases with time due to the transport of the drug (FIG. 6). At pH 8 characteristic time was of the order ˜20 s and increased at more acidic pH to ˜100 s.

[4] = bovine, fetal bovine serum, plasma or biological fluid
[5] = pH 7.4 buffer, pH 7.4, aqueous buffer
[6] = method 1: drug added directly into albumin solutions in the wells

Sequence of albumin (P02768 25-609, species assumed): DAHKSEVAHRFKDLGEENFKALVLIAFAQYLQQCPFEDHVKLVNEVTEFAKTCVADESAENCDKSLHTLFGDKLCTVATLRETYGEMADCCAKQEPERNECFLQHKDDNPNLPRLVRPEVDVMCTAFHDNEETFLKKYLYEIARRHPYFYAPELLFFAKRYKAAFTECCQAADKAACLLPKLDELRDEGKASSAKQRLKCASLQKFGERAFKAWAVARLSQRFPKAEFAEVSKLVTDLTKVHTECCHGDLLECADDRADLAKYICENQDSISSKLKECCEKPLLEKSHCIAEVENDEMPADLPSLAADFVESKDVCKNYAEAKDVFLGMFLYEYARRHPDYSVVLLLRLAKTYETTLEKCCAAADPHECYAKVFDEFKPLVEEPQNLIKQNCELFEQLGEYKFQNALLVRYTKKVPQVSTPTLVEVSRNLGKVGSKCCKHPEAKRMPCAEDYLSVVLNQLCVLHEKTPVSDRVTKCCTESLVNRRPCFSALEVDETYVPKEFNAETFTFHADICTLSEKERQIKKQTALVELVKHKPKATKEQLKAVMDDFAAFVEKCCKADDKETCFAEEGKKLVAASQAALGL

SMILES	potentials in buffer versus albumin solutions (drug binding property of albumin) (albumin; pH2, reference 5×10^−6 M drug in buffer)	membrane lysis / loss of transmembrane potential [1]	solubility (Solubility; [4]) [mM]	solubility (Solubility; [5]) [mM]	slope of calibration curve (albumin; [6])	time for the potential to reach the steady state (albumin; [6])	gradient of calibration curve (albumin; method 2: drug in albumin solution prepared, preequilibrated, then added into wells)	time taken to reach the maximum potential [2]	characteristic time of potential decrease due to transport of the drug ([3]; more acidic pH) [s]	characteristic time of potential decrease due to transport of the drug ([3]; pH 8, higher drug concentrations (FIG. 6: 10^−3 M)) [s]
CN(C)CCCN1c2ccccc2Sc2ccc(Cl)cc21 [Chlorpromazine Hydrochloride, 2-chloro-10-[3-dimethylaminopropyl] phenothiazine]	higher with buffer than with albumin solutions	–	–	–	–	–	–	–	–	–
CC(N)C12CC3CC(CC(C3)C1)C2.Cl (stereo not drawn) [Rimantadine Hydrochloride, 1-(1-Adamantyl)ethylamine hydrochloride]	–	did not result in the membrane lysis	~10	~50	19.3 mV per 10 fold change in Rimantadine concentration	at least an hr	59.9 mV per 10 fold change in drug concentration	–	–	–
CCNC(C)Cc1cccc(C(F)(F)F)c1.Cl (racemic) [Fenfluramine Hydrochloride, (+/−)-N-ethyl-α-methyl-m-(trifluoromethyl) phenethylamine HCl]	–	–	~10	~50	–	–	–	less then a minute	~100	~20
